Experimental data reported in patent US10980769B2, “Tiglien-3-one derivatives” (QBIOTICS PTY LTD, priority 2005, dated 2021).
Entries after “also recorded” stand apart in the source; their conditions may differ.

How the values were obtained:
Stability = format: physicochemical
From the text: This instability was observed upon nitrogen evaporation but not while in acetonitrile/water solution at room temperature or on vacuum evaporation. To avoid decomposition the equivalent four bands of active metabolites from the second preparative HPLC were individually back extracted in the ethyl acetate and evaporated under vacuum. Analytical HPLC of these samples confirmed minimal decomposition.
[…] The structure has no readily reactive groups which might otherwise confer instability.

normal skin = test: Inflammatory response of skin; settings: in vivo
HT-29 colon tumour cells = test: Cell scattering of cultured cells; format: cell-based, human
From the text: In addition, scattering of MCF-7 and HT-29 colon tumour cells was observed, typical of PKC activators. […] Additionally, given their similarity in structure, EBI-47, EBI-59 and EBI-61 are also considered to be protein kinase C activators.

[1] = test system: NS1 murine myeloma cell line; test: CyTOX (Cy) chromogenic cytotoxicity bioassay; format: cell-based
From the text: CyTOX (alternatively referred to herein as Cy) is a microtitre plate bioassay use to identify potential antitumour actives. CyTOX is a chromogenic bioassay with broad application to a wide range of tumour and non-tumour cell lines.
CyTOX features a liquid media into which the test compound has been incorporated together with a novel chromogen. As the cells grow and divide the chromogen is metabolised from purple in a single step process to a colourless metabolite. CyTOX was undertaken using NS1 murine myeloma cell line as a guide to mammalian cell toxicity.
Briefly, in CyTOX the cells were applied to the media containing the test chemical and allowed to grow for 72 hours. The assay was monitored at 24, 48 and 72 hours and the active wells identified.

PKC = PKC activation in cultured tumour cells (scattering and growth inhibition of MCF7); format: cell-based, human; settings: defined by scattering and growth inhibition of MCF7 breast cancer cells
[2] = test system: murine B-cell lymphoma line A20; test: Systemic (intraperitoneal) treatment of A20 lymphoma in SCID-NOD mice; format: in vivo; settings: 5 doses of 20-25 μg from day 18, one mouse
Procedure: (§1) Animal experiments were conducted under Queensland Institute of Medical Research (QIMR) Animal Ethics Committee approvals. The B16 mouse melanoma model was obtained by injecting 0.5 million B16 mouse melanoma cells subcutaneously into each of the 2 flanks of a male C57BL/6 mouse. The human tumour xenografts were obtained by injecting 2 million of the respective tumour cell line into each of 4 sites on the flanks of male nude mice (BALB/c background). EBI-46 was applied: (a) topically by dilution of a concentrated solution in acetone into an isopropanol gel, once a day for 3 days; (b) intralesionally by injection into the tumour of drug dissolved in 25% propylene glycol-0.1 M saline, (c) systemically by injection intraperitoneally in 25% propylene glycol in 0.1 M saline. Tumour size was measured with electronic callipers in mm and converted to volume (cubic mm) using the formula: Tumour volume=length×breadth×breadth/2. Results
The murine B-cell lymphoma line A20 was used as an experimental model because it has been reported to grow well in mice and closely models the human situation.
SCID-NOD mice (BALB/c background) were shaved and 10E7 A20 cells injected subcutaneously (2 sites per mouse). The tumours tended to grow in a flat, diffuse manner and became raised and measurable at the 10E7 sites only after about 15 days. […]

[3] = test system: human nasopharyngeal tumour; test: Intralesional injection of human nasopharyngeal tumour in SCID-NOD mice; format: in vivo, mouse; settings: up to 3 injections, total of 25 μg in 25% propylene glycol-saline, 2 mice
Procedure: A second mouse model was tested in a pilot study, involving an 8 mm diameter human nasopharyngeal tumour implanted and growing subcutaneously on the neck of a SCID-NOD mouse. Up to 3 injections of EBI-46 (total of 25 μg in 75 μL25% propylene glycol-saline) were made into the NPC tumours of 2 mice.

MM96L cell line = test: Changes in morphology of cultured cells; format: cell-based, human
Trichophyton rubrum = test: MycoTOX (Tr) antifungal bioassay; format: cell-based
Procedure: MycoTOX (alternatively referred to herein as Tr) is a non-chromogenic bioassay used to detect activity against filamentous fungal pathogens of plants and animals. The bioassay features a solid phase agar base into which the test compound has been incorporated. As the growth patterns of filamentous fungi are readily apparent on the agar surface the extent of mycelial growth, sporulation (if relevant to the species under investigation) and colour changes with maturation are measured.
MycoTOX, involves a fungus (spore suspension or mycelial fragments) being applied to the surface of an agar matrix containing the test chemical and allowed to grow for a period of up to a week (depending on species). The assay is monitored at two discrete times to identify key development phases in the life cycle (for example mycelial growth and extent of sporulation) and the active wells noted. The monitoring times are dependent on the fungal species under investigation.
The MycoTOX assays were carried out using Trichophyton rubrum. The MycoTOX test is alternatively referred to as Tr to indicate the use of Trichophyton rubrum.

LK-2 mouse SCC = test: Intralesional injection of LK-2 SCC tumours in mice; format: in vivo
Procedure: Squamous Cell Carcinoma (SCC) tumours were established by the same method as for topical treatment but were allowed to grow for 15 days before drug treatment. 7 μg EBI-46 in 20 μL, saline was injected into each of 3 sides of the tumour. Tumour size was measured with calipers at appropriate intervals.
as §1
A pilot study was conducted on 6 mm×6 mm LK-2 tumours established in nude mice. Approximately 50 μL of a solution of EB548 fractions (approximately 20 μg EBI-46 in the EB548-35 fraction) in saline containing 20% acetone were injected in 3 sites around the periphery of each lesion. This was only done once.
With PEG 400 delivery, 10 μg EBI-46 in 25 μL solution was injected (29 gauge) with a 0.5 mL insulin needle into a 7 mm×7 mm tumour, highly visible on the left flank of a nude mouse.

In the case of `C/C=C(\C)C(=O)OC1C(C)C2(O)C(C3OC3(CO)C(O)C3(O)C(=O)C(C)=CC32)C2C(C)(C)C12OC(=O)C(C)CC` (stereo not shown) [EBI-46, 12-tigloyl-13-(2-methylbutanoyl)-6,7-epoxy-4,5,9,12,13,20-hexahydroxy-1-tiglian-3-one], the stability of solution (Stability; 25% propylene glycol-saline at 4° C.) is reported as “stable for weeks”, the “stability by HPLC” value (Stability; PEG 400 containing 10% ethanol held at 37° C.) is reported as “confirmed” and the stability of solutions (Stability; in ethanol, 4° C. for 4 weeks) is reported as “retain bioactivity”. The effect on skin (normal skin) was “can cause inflammation of skin; also recorded: causes an inflammatory response in normal skin”, the “scattering of HT-29 colon tumour cells” value (HT-29 colon tumour cells) was “scattering” and the “Cy Titre” value [1] was 8. For the same molecule, the “Cy LD99” value ([1]; Table 6a, last well with activity, real value may be lower) was 7.8 pg/mL, the PKC activity (PKC) was “yes” and the tumour growth [2] was “strongly inhibited”. The tumour outcome [3] was “no sign of residual tumour; also recorded: delayed but not ablated”, the “change in morphology of MM96L cells” value (MM96L cell line) was “characteristic change to bipolar morphology; also recorded: extreme bipolar morphology” and the “Tr Titre” value (Trichophyton rubrum) was 0. For the same molecule, the “tumour at 16 hours” value (LK-2 mouse SCC; 10 μg in 25 μL PEG 400 containing 10% ethanol, 7 mm × 7 mm tumour) was “tumour lump had largely gone”, the “time mouse remained tumour-free” value (LK-2 mouse SCC; 10 μg in PEG 400 containing 10% ethanol, single injection) was “over 9 months” and the “systemic toxicity or lung metastases on post mortem” value (LK-2 mouse SCC; intralesional 21 ug) was “There were no signs of”. The tumour size (LK-2 mouse SCC; intralesional 21 ug (3 × 7 ug), 15-day established tumours) was “reduction of tumour size”.
